Laboratory results taken from US20250122225A1, “MASP-2 INHIBITORS AND METHODS OF USE” (Omeros Corporation, priority 2023, published 2025).
Counter-ions that a name gives are not always drawn.

How the values were obtained:
Format in all cases: biochemical
[1] = test system: Lectin Pathway Activation in human serum; assay: Lectin Pathway Activation (LPA) assay in human serum, mannan-coated ELISA plate, C4c detection; conditions: 1% human serum, read-out: LPA Functional Activity (IC50)
Procedure: Lectin Pathway Activation (LPA) Assay in Human Serum Treated with Compounds
A microtiter ELISA plate was coated with mannan (1 mg/ml) from Saccharomyces cerevisiae (Sigma-Aldrich®, M7504) overnight at 4° C. in coating buffer [33.3 mM Na2CO3, 166.67 mM NaHCO3]. The plate was blocked with 5% bovine serum albumin (BSA) (Sigma-Aldrich®, A3294) in 1×PBST [Phosphate Buffered Saline Solution (1.06 mM KH2PO4, 155.2 mM NaCl, 2.97 mM Na2HPO4^−·7H2O, pH 7.4), 0.05% Tween-20] shaking for 2 hours at room temperature. 1% human serum was incubated with serial dilutions of small compounds in 1× LPA+ Buffer [20 mM Hepes, pH 7.4, 140 mM NaCl, 2 mM MgCl2 (6H2O)] and incubated for 5 minutes at room temperature. 40 μL of this mixture was then added to the plate, and the plate was incubated at room temperature for 55 mins. Next, the reaction was stopped by adding 20 μL of EDTA Stop Solution [20 mM Hepes, pH7.4, 140 mM NaCl, 150 mM EDTA] to the plate. The plate was then washed 10× in wash buffer 1×PBST; 40 μL of Rabbit Anti Human C4c Antibody [Dako®, Q0369] diluted 1:20000 in wash buffer was added; and the plate was incubated shaking at room temperature for 30 minutes. The plate was washed [5× times]; 40 μL of Goat Anti-rabbit Antibody-HRP Conjugate [Southern Biotech®, 4050-05] diluted 1:10000 in wash buffer was added; and the plate was incubated shaking at room temperature for 30 minutes. After that, the plate was washed five times; 40 µL/well of Amplex® UltraRed Substrate Solution [1× LPA Buffer, 10 mM Amplex® UltraRed Stock Solution [Thermo Fisher Sci.®, A36006], 3% stabilized hydrogen peroxide [Sigma Aldrich®, 216763] was added; the plate was incubated at room temperature for 16 minutes; the reaction was stopped by adding 8 µL/well of Amplex® UltraRed Stop Solution [Thermo Fisher Sci.®, A33855] in 100% EtOH. Finally, the plate was read for fluorescence at Ex: 550 nm, Em: 580 nm on the i3x Microplate Reader.

MASP-2 (CCP1-CCP2-SP) = target: T1, MASP-2 (CCP1-CCP2-SP) (Homo sapiens, UniProt O00187); assay: Enzymatic assay for MASP-2 inhibitory activity (fluorogenic substrate)
T1 construct: 15 μL of Enzyme MASP-2 (CCP1-CCP2-SP) in Assay Buffer
T1 sequence (O00187 445-686 limits assumed): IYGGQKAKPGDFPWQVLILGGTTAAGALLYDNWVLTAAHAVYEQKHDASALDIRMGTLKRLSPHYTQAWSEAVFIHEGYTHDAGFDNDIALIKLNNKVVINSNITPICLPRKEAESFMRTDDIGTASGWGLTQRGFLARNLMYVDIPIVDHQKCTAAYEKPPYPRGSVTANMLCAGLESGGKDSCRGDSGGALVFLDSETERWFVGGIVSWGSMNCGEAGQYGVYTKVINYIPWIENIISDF
T1 sequence (O00187 287-444 partner limits assumed): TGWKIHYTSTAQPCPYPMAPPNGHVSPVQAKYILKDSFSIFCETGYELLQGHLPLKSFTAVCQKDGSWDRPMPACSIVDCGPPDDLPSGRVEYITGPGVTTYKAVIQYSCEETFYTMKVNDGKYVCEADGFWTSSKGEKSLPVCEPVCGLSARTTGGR
How it was run: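 MASP-2 (CCP1-CCP2-SP) cleaved a fluorogenic substrate based on the C2 cleavage site in 20 mM HEPES pH 7.4, 140 mM NaCl, 0.1% Tween 20 at room temperature. After 20 min the reaction was stopped with 0.1 M acetic acid and fluorescence read. % activity was normalized to DMSO-only and no-enzyme controls; IC50 taken as Ki.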

human α-thrombin = target: T2, human α-thrombin (Homo sapiens, UniProt P00734); assay: Enzymatic assay for thrombin (fluorogenic peptide substrate Boc-VPR-AMC)
T2 construct: enzyme (human α-thrombin (BioPharm® Lab.)) in assay buffer; purchased BioPharm® Lab
How it was run: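 Human α-thrombin was run with the fluorogenic substrate Boc-VPR-AMC in 20 mM Hepes pH 7.4, 140 mM NaCl, 0.1% Tween 20 at room temperature for 20 min, then stopped with 0.1 M acetic acid. % activity was normalized to DMSO and no-enzyme controls. Under linear conditions IC50 equalled Ki, except for tight-binding inhibitors.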

SMILES	IC50 [1]	Ki (MASP-2 (CCP1-CCP2-SP))	Ki (human α-thrombin)
Cc1cc(C)cc(CNc2ncc3n(c2=O)[C@H](C(=O)NCc2cc4cnccc4n2C)CC3)c1 [Compound 41, (S)-3-((3,5-dimethylbenzyl)amino)-N-((1-methyl-1H-pyrrolo[3,2-c]pyridin-2-yl)methyl)-4-oxo-4,6,7,8-tetrahydropyrrolo[1,2-a]pyrazine-6-carboxamide trifluoroacetate]	< 50 nM	< 500 nM	500 to 2500 nM
C[C@@H]1C[C@@H](C(=O)NCc2cc3cnccc3[nH]2)n2c1c(Cl)nc(NCc1ccccc1)c2=O [Compound 230, (6S,8R)-N-((1H-pyrrolo[3,2-c]pyridin-2-yl)methyl)-3-(benzylamino)-1-chloro-8-methyl-4-oxo-4,6,7,8-tetrahydropyrrolo[1,2-a]pyrazine-6-carboxamide trifluoroacetate]	50 to 500 nM	< 500 nM	500 to 2500 nM
Cc1ccc(CNc2nc(Cl)c3n(c2=O)[C@H](C(=O)NCc2ccc(N)nc2C)CC3)cc1C [Compound 27, (S)-N-((6-amino-2-methylpyridin-3-yl)methyl)-1-chloro-3-((3,4-dimethylbenzyl)amino)-4-oxo-4,6,7,8-tetrahydropyrrolo[1,2-a]pyrazine-6-carboxamide trifluoroacetate]	< 50 nM	< 500 nM	2500 to 10000 nM
Cc1cc(F)cc(CNc2ncc3n(c2=O)[C@H](C(=O)NCc2cnc(N)c(C)c2)CC3)c1 [Compound 213, (S)—N-((6-amino-5-methylpyridin-3-yl)methyl)-3-((3-fluoro-5-methylbenzyl)amino)-4-oxo-4,6,7,8-tetrahydropyrrolo[1,2-a]pyrazine-6-carboxamide trifluoroacetate]	50 to 500 nM	< 500 nM	< 500 nM
Cc1cc(C)cc([C@@H](CO)Nc2ncc3n(c2=O)[C@H](C(=O)NCc2cc4cnccc4[nH]2)CC3)c1 [Compound 75, (S)-N-((1H-pyrrolo[3,2-c]pyridin-2-yl)methyl)-3-(((S)-1-(3,5-dimethylphenyl)-2-hydroxyethyl)amino)-4-oxo-4,6,7,8-tetrahydropyrrolo[1,2-a]pyrazine-6-carboxamide]	< 50 nM	< 500 nM	< 500 nM
Cc1cc(F)cc(CNc2ncc3n(c2=O)[C@H](C(=O)NCc2ccc(CN)cc2)CC3)c1 [Compound 181, (S)—N-(4-(aminomethyl)benzyl)-3-((3-fluoro-5-methylbenzyl)amino)-4-oxo-4,6,7,8-tetrahydropyrrolo[1,2-a]pyrazine-6-carboxamide trifluoroacetate]	50 to 500 nM	< 500 nM	2500 to 10000 nM
O=C(NCc1cc2cnccc2[nH]1)[C@@H]1CCc2c(C3=CCOCC3)nc(NCc3ccccc3)c(=O)n21 [Compound 120, (S)—N-((1H-pyrrolo[3,2-c]pyridin-2-yl)methyl)-3-(benzylamino)-1-(3,6-dihydro-2H-pyran-4-yl)-4-oxo-4,6,7,8-tetrahydropyrrolo[1,2-a]pyrazine-6-carboxamide]	< 50 nM	< 500 nM	> 25000 nM
Cc1ccc(F)c(CNc2ncc3n(c2=O)[C@H](C(=O)NCc2cc4cnccc4[nH]2)CC3)c1 [Compound 78, (S)-N-((1H-pyrrolo[3,2-c]pyridin-2-yl)methyl)-3-((2-fluoro-5-methylbenzyl)amino)-4-oxo-4,6,7,8-tetrahydropyrrolo[1,2-a]pyrazine-6-carboxamide]	< 50 nM	< 500 nM	< 500 nM
Cc1nc(N)ccc1CNC(=O)[C@@H]1CCc2c(Cl)nc(NCc3ccccc3)c(=O)n21 [Compound 131, (S)-N-((6-amino-2-methylpyridin-3-yl)methyl)-3-(benzylamino)-1-chloro-4-oxo-4,6,7,8-tetrahydropyrrolo[1,2-a]pyrazine-6-carboxamide]	< 50 nM	< 500 nM	500 to 2500 nM
Cc1cc(F)cc(CNc2ncc3n(c2=O)[C@H](C(=O)NCc2ccc(N)nc2C)CC3)c1 [Compound 69, (S)-N-((6-amino-2-methylpyridin-3-yl)methyl)-3-((3-fluoro-5-methylbenzyl)amino)-4-oxo-4,6,7,8-tetrahydropyrrolo[1,2-a]pyrazine-6-carboxamide]	< 50 nM	< 500 nM	< 500 nM
C[C@@H](CNc1ncc2n(c1=O)[C@H](C(=O)NCc1cc3c(s1)CNC3)CC2)c1ccccc1 [Compound 276, (S)-N-((5,6-dihydro-4H-thieno[2,3-c]pyrrol-2-yl)methyl)-4-oxo-3-(((R)-2-phenylpropyl)amino)-4,6,7,8-tetrahydropyrrolo[1,2-a]pyrazine-6-carboxamide trifluoroacetate]	< 50 nM	< 500 nM	< 500 nM
CC[C@@H](Nc1ncc2n(c1=O)[C@H](C(=O)N[C@H](C)c1cc3c(s1)CNC3)CC2)c1ccccc1 [Compound 277]	50 to 500 nM	< 500 nM	500 to 2500 nM
Cc1nc(N)ccc1CNC(=O)[C@@H]1C[C@H](Cc2ccccc2)c2cnc(NC3CCC3)c(=O)n21 [Compound 140, (6S,8S)-N-((6-amino-2-methylpyridin-3-yl)methyl)-8-benzyl-3-(cyclobutylamino)-4-oxo-4,6,7,8-tetrahydropyrrolo[1,2-a]pyrazine-6-carboxamide]	< 50 nM	< 500 nM	< 500 nM
Cc1nc(N)ccc1CNC(=O)[C@@H]1CCc2c(Cl)nc(NCCc3cccnc3)c(=O)n21 [Compound 240]	50 to 500 nM	< 500 nM	< 500 nM
O=C(NCc1cc2c(s1)CNC2)[C@@H]1CCc2cnc(N[C@@H](c3ccccc3)C3CC3)c(=O)n21 [Compound 259, (S)-3-(((R)-cyclopropyl(phenyl)methyl)amino)-N-((5,6-dihydro-4H-thieno[2,3-c]pyrrol-2-yl)methyl)-4-oxo-4,6,7,8-tetrahydropyrrolo[1,2-a]pyrazine-6-carboxamide trifluoroacetate]	< 50 nM	< 500 nM	< 500 nM
Cc1cccc([C@@H](C)Nc2ncc3n(c2=O)[C@H](C(=O)NCc2cc4c(s2)CNC4)CC3)c1 [Compound 90, (S)—N-((5,6-dihydro-4H-thieno[2,3-c]pyrrol-2-yl)methyl)-4-oxo-3-(((R)-1-(m-tolyl)ethyl)amino)-4,6,7,8-tetrahydropyrrolo[1,2-a]pyrazine-6-carboxamide]		< 500 nM	2500 to 10000 nM
Cc1cc(CNc2ncc3n(c2=O)[C@H](C(=O)N[C@H](C)c2ccc(N)nc2)CC3)cc(C(F)(F)F)c1 [Compound 203, (S)-N-((R)-1-(6-aminopyridin-3-yl)ethyl)-3-((3-methyl-5-(trifluoromethyl)benzyl)amino)-4-oxo-4,6,7,8-tetrahydropyrrolo[1,2-a]pyrazine-6-carboxamide]		< 500 nM	2500 to 10000 nM
Cc1cc(F)cc(CNc2ncc3n(c2=O)[C@@H](C(=O)NCc2ccc(N)nc2C)CC3)c1 [Compound 163, (R)—N-((6-amino-2-methylpyridin-3-yl)methyl)-3-((3-fluoro-5-methylbenzyl)amino)-4-oxo-4,6,7,8-tetrahydropyrrolo[1,2-a]pyrazine-6-carboxamide]		< 500 nM	< 500 nM
N#Cc1cccc(CNc2nc(Cl)c3n(c2=O)[C@H](C(=O)NCc2cc4cnccc4[nH]2)CC3)c1 [Compound 144, (S)-N-((1H-pyrrolo[3,2-c]pyridin-2-yl)methyl)-1-chloro-3-((3-cyanobenzyl)amino)-4-oxo-4,6,7,8-tetrahydropyrrolo[1,2-a]pyrazine-6-carboxamide]		< 500 nM	2500 to 10000 nM
CC[C@H]1C[C@@H](C(=O)NCc2cc3cnccc3[nH]2)n2c1c(Cl)nc(NCc1cc(C)cc(C)c1)c2=O [Compound 160, (6S,8S)-N-((1H-pyrrolo[3,2-c]pyridin-2-yl)methyl)-1-chloro-3-((3,5-dimethylbenzyl)amino)-8-ethyl-4-oxo-4,6,7,8-tetrahydropyrrolo[1,2-a]pyrazine-6-carboxamide]		< 500 nM	> 25000 nM
